# Reference: patent US11168364B2, “Method and system for sequencing nucleic acids” (priority 2016, dated 2021)
# Biological target: T1, Bsu DNA polymerase large fragment / primed template nucleic acid (Bacillus subtilis, UniProt O34996)
# T1 construct: 350 U/ml Bsu DNA polymerase large fragment
# T1 sequence (O34996 297-880 limits assumed): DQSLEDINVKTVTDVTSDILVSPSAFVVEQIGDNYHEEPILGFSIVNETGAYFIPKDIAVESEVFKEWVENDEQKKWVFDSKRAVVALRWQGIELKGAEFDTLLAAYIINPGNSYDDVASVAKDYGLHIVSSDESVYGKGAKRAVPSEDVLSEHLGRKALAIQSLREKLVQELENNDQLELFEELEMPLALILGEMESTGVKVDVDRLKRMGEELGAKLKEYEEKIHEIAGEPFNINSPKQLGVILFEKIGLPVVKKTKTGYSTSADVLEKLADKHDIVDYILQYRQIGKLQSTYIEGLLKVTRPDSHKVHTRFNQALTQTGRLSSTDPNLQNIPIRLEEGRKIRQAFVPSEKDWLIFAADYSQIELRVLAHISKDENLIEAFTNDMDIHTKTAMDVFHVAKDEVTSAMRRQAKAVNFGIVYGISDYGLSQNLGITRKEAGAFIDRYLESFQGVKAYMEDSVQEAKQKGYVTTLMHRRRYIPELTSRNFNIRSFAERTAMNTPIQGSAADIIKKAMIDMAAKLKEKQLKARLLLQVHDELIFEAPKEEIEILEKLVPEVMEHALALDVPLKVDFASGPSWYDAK
# Experiment: Biolayer interferometry of polymerase binding to immobilized primed template with cognate or non-cognate nucleotide, salt titration (Example 19)
# Details: for Ternary Complex Signal (Δλ, nm): dCTP (cognate); for Binary Complex Signal (Δλ, nm): dGTP (non-cognate)
# Excerpt: A FORTEBIO® (Menlo Park, Calif.) OCTET® instrument employing biolayer interferometry to measure binding reactions at the surface of a fiber optic tip was used in a multiwell plate format to investigate differential stability of binary and ternary complexes. Template strands biotinylated at their 5′-ends were used to immobilize the primed template nucleic acid onto fiber optic tips functionalized with streptavidin (SA) according to standard procedures. […] Tips were first equilibrated in a Tris-buffered solution containing 30 mM Tris-HCl (pH 8.0), and 0.1 mM EDTA before commencing the cycling protocol. Independent binding reactions for the two test nucleotides (i.e., cognate and non-cognate nucleotides) were carried out in the presence of concentrations of NaCl, KCl, or potassium glutamate that varied from 50 mM to 500 mM. […] In all instances, the reaction mixture used during the examination step contained Tris-HCl (pH 8.0), 0.01% Tween-20, 100 μg/ml BSA, 2 mM NiSO4, 350 U/ml Bsu DNA polymerase large fragment; and one of the nucleotides at a concentration of 100 μM (dCTP was used as a cognate nucleotide, and dGTP was used as a non-cognate nucleotide). Following each examination step, tips were exposed to a buffer containing 30 mM Tris-HCl (pH 8.0), 500 mM KCl, 2 mM EDTA and 0.05% Tween-20 for 20 seconds to strip enzyme complexes from the primed template nucleic acid. The stripping step was followed by a 15 second exposure to examination buffer without enzyme, dNTP or divalent cations to regenerate tips for the next cycle of examination. When using a single contacting step to effect binding of polymerase and nucleotide to the primed template nucleic acid, the binding step was 45 seconds long, with binding interactions being monitored continuously. This was accomplished by contacting the primed template nucleic acid with a single solution that included the polymerase and test nucleotide. Results from interferometry monitoring were analyzed to identify formation of ternary complexes (i.e., identifying cognate nucleotide) or binary complexes (i.e., identifying non-cognate nucleotide).
smiles,measurement,setting,value
[Cl-].[Na+] [NaCl],Fold Enhancement (Ternary/Binary),NaCl 50 mM,1.07
same,"Ternary Complex Signal (Δλ, nm)",NaCl 50 mM,3.33 nm
same,"Binary Complex Signal (Δλ, nm)",NaCl 50 mM,3.11 nm
same,Fold Enhancement (Ternary/Binary),NaCl 75 mM,1.10
same,"Ternary Complex Signal (Δλ, nm)",NaCl 75 mM,2.77 nm
same,"Binary Complex Signal (Δλ, nm)",NaCl 75 mM,2.51 nm
same,Fold Enhancement (Ternary/Binary),NaCl 100 mM,1.07
same,"Ternary Complex Signal (Δλ, nm)",NaCl 100 mM,2.34 nm
same,"Binary Complex Signal (Δλ, nm)",NaCl 100 mM,2.17 nm
same,Fold Enhancement (Ternary/Binary),NaCl 125 mM,1.04
same,"Ternary Complex Signal (Δλ, nm)",NaCl 125 mM,1.99 nm
same,"Binary Complex Signal (Δλ, nm)",NaCl 125 mM,1.91 nm
same,Fold Enhancement (Ternary/Binary),NaCl 150 mM,1.04
same,"Ternary Complex Signal (Δλ, nm)",NaCl 150 mM,1.73 nm
same,"Binary Complex Signal (Δλ, nm)",NaCl 150 mM,1.67 nm
same,Fold Enhancement (Ternary/Binary),NaCl 175 mM,1.11
same,"Ternary Complex Signal (Δλ, nm)",NaCl 175 mM,1.51 nm
same,"Binary Complex Signal (Δλ, nm)",NaCl 175 mM,1.36 nm
same,Fold Enhancement (Ternary/Binary),NaCl 200 mM,1.19
same,"Ternary Complex Signal (Δλ, nm)",NaCl 200 mM,1.36 nm
same,"Binary Complex Signal (Δλ, nm)",NaCl 200 mM,1.15 nm
same,Fold Enhancement (Ternary/Binary),NaCl 225 mM,1.27
same,"Ternary Complex Signal (Δλ, nm)",NaCl 225 mM,1.28 nm
same,"Binary Complex Signal (Δλ, nm)",NaCl 225 mM,1.01 nm
same,Fold Enhancement (Ternary/Binary),NaCl 250 mM,1.47
same,"Ternary Complex Signal (Δλ, nm)",NaCl 250 mM,1.18 nm
same,"Binary Complex Signal (Δλ, nm)",NaCl 250 mM,0.80 nm
same,Fold Enhancement (Ternary/Binary),NaCl 275 mM,1.65
same,"Ternary Complex Signal (Δλ, nm)",NaCl 275 mM,1.11 nm
same,"Binary Complex Signal (Δλ, nm)",NaCl 275 mM,0.67 nm
same,Fold Enhancement (Ternary/Binary),NaCl 300 mM,1.86
same,"Ternary Complex Signal (Δλ, nm)",NaCl 300 mM,0.99 nm
same,"Binary Complex Signal (Δλ, nm)",NaCl 300 mM,0.53 nm
same,Fold Enhancement (Ternary/Binary),NaCl 325 mM,2.76
same,"Ternary Complex Signal (Δλ, nm)",NaCl 325 mM,0.93 nm
same,"Binary Complex Signal (Δλ, nm)",NaCl 325 mM,0.34 nm
same,Fold Enhancement (Ternary/Binary),NaCl 350 mM,2.94
same,"Ternary Complex Signal (Δλ, nm)",NaCl 350 mM,0.74 nm
same,"Binary Complex Signal (Δλ, nm)",NaCl 350 mM,0.25 nm
same,Fold Enhancement (Ternary/Binary),NaCl 375 mM,3.62
same,"Ternary Complex Signal (Δλ, nm)",NaCl 375 mM,0.61 nm
same,"Binary Complex Signal (Δλ, nm)",NaCl 375 mM,0.17 nm
same,"Ternary Complex Signal (Δλ, nm)",NaCl 400 mM,0.48 nm
same,"Binary Complex Signal (Δλ, nm)",NaCl 400 mM,0.08 nm
same,Fold Enhancement (Ternary/Binary),NaCl 425 mM,5.16
same,"Ternary Complex Signal (Δλ, nm)",NaCl 425 mM,0.38 nm
same,"Binary Complex Signal (Δλ, nm)",NaCl 425 mM,0.07 nm
same,Fold Enhancement (Ternary/Binary),NaCl 450 mM,6.65
same,"Ternary Complex Signal (Δλ, nm)",NaCl 450 mM,0.26 nm
same,"Binary Complex Signal (Δλ, nm)",NaCl 450 mM,0.04 nm
same,Fold Enhancement (Ternary/Binary),NaCl 475 mM,10.28
same,"Ternary Complex Signal (Δλ, nm)",NaCl 475 mM,0.19 nm
same,"Binary Complex Signal (Δλ, nm)",NaCl 475 mM,0.02 nm
same,"Ternary Complex Signal (Δλ, nm)",NaCl 500 mM,0.21 nm
same,"Binary Complex Signal (Δλ, nm)",NaCl 500 mM,0.00 nm
